Reference: US10047051B2, “Substituted pyridines and method of use” (AbbVie S.á{acute over (.)}r.l., priority 2015, dated 2018)

Tests used:
CFTR ΔF508 mutant = biological target: T1, CFTR ΔF508 mutant (Homo sapiens, UniProt P13569, DEL508-508); assay: YFP-halide influx assay for the CFTR-ΔF508 mutation (CFBE41o- cells); assay type: cell-based; details: forskolin 10.67 μM; for EC50: from (1−F/F0) vs concentration plot
T1 construct: expressed in transfected cells; host or cells: CFBE41o- cells, adenoviral transduction
T1 sequence (P13569 with tags, fused parts or gaps DEL508-508): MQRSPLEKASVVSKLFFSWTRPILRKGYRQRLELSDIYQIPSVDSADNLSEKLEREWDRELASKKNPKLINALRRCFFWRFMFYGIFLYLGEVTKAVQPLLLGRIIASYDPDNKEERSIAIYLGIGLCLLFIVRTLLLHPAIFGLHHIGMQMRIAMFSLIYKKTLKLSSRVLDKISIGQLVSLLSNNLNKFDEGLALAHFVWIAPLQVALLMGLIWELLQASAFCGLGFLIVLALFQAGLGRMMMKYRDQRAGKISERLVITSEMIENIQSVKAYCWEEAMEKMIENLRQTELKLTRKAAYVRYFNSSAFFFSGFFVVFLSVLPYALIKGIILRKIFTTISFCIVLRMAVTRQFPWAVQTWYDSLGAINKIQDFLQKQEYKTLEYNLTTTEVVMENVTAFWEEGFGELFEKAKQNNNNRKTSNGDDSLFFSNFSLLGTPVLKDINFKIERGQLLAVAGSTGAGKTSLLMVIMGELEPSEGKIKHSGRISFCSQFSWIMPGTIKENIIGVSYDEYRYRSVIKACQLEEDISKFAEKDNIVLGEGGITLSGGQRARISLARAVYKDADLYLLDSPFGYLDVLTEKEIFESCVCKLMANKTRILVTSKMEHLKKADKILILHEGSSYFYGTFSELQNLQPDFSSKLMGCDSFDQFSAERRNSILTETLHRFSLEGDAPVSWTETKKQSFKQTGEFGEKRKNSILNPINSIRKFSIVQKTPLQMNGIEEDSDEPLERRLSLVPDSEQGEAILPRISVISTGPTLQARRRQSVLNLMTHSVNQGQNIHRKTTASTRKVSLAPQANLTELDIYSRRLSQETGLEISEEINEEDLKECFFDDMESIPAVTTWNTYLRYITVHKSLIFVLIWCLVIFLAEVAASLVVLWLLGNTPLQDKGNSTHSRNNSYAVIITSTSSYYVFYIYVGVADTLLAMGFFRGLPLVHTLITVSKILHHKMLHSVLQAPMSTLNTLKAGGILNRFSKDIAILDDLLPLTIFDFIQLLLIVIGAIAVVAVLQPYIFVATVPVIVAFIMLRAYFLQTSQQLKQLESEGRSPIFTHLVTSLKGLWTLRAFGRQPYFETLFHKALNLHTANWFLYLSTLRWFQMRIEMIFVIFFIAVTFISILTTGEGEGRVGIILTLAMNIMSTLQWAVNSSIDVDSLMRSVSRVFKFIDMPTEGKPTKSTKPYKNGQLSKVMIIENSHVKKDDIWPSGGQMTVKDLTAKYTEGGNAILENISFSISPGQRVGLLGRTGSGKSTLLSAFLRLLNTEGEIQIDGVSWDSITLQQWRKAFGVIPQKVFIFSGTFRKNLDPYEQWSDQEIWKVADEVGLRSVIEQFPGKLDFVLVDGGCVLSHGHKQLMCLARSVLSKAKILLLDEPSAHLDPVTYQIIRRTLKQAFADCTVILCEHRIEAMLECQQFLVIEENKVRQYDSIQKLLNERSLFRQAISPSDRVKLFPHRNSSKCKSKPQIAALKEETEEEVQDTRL
Text: The YFP halide influx assay measured the functionality of the cystic fibrosis Transmembrane Conductance regulator (CFTR) channels in the cystic fibrosis bronchial epithelium cell line CFBE41o-. The assay was used to evaluate the capacity of compounds to increase the open probability of existing CFTR channels in the membrane. It makes use of the observation that the yellow fluorescent protein (YFP) variant YFP H148Q, I152L, F47L has its fluorescence substantially quenched by halide ions like Cl^− and I^− (Galietta, L. J. V., Haggie, P. M., Verkman, A. S., 2001. Green fluorescent protein-based halide indicators with improved chloride and iodide affinities. FEBS Lett. 499, 220-224. doi:10.1016/S0014-5793(01)02561-3; Nagai, T., Ibata, K., Park, E. S., Kubota, M., Mikoshiba, K., Miyawaki, A., 2002. A variant of yellow fluorescent protein with fast and efficient maturation for cell-biological applications. Nat. Biotechnol. 20, 87-90. doi: 10.1038/nbt0102-87).
For this purpose, CFBE41o-cells were seeded in 384 well plates (3000 CFBE cells/well). One day after seeding, the CFBE cells were transduced with adenoviral vectors that direct the expression of the CFTR ΔF508 mutant and of the YFP reporter. Cells were incubated at 27° C., 5% CO2 for 24 hours so as to allow for the proper folding and migration to the membrane of the CFTR channel or treated with a CFTR modulator during 24 hours at 37° C.
(§1) The I-induced quenching of fluorescence was recorded on an immediately after injection of iodide for 2 minutes on an FDSS/μCell (Hamamatsu). The capacity of a compound to increase the channel opening was directly correlated with the decrease in fluorescence, and was expressed as (1−(fluorescence after 36 seconds (F)/fluorescence before injection (F0))) and an EC50 was derived from a (1−F/F0) vs compound concentration plot.

CFTR G551D mutant = biological target: T2, CFTR G551D mutant (Homo sapiens, UniProt P13569, G551D); assay: YFP-halide influx assay for the CFTR-G551D mutation (HEK293 cells); assay type: cell-based; details: forskolin 10.67 μM
T2 construct: expressed in transfected cells; host or cells: HEK293 cells, reverse transfection with plasmids
T2 sequence (P13569 whole entry G551D): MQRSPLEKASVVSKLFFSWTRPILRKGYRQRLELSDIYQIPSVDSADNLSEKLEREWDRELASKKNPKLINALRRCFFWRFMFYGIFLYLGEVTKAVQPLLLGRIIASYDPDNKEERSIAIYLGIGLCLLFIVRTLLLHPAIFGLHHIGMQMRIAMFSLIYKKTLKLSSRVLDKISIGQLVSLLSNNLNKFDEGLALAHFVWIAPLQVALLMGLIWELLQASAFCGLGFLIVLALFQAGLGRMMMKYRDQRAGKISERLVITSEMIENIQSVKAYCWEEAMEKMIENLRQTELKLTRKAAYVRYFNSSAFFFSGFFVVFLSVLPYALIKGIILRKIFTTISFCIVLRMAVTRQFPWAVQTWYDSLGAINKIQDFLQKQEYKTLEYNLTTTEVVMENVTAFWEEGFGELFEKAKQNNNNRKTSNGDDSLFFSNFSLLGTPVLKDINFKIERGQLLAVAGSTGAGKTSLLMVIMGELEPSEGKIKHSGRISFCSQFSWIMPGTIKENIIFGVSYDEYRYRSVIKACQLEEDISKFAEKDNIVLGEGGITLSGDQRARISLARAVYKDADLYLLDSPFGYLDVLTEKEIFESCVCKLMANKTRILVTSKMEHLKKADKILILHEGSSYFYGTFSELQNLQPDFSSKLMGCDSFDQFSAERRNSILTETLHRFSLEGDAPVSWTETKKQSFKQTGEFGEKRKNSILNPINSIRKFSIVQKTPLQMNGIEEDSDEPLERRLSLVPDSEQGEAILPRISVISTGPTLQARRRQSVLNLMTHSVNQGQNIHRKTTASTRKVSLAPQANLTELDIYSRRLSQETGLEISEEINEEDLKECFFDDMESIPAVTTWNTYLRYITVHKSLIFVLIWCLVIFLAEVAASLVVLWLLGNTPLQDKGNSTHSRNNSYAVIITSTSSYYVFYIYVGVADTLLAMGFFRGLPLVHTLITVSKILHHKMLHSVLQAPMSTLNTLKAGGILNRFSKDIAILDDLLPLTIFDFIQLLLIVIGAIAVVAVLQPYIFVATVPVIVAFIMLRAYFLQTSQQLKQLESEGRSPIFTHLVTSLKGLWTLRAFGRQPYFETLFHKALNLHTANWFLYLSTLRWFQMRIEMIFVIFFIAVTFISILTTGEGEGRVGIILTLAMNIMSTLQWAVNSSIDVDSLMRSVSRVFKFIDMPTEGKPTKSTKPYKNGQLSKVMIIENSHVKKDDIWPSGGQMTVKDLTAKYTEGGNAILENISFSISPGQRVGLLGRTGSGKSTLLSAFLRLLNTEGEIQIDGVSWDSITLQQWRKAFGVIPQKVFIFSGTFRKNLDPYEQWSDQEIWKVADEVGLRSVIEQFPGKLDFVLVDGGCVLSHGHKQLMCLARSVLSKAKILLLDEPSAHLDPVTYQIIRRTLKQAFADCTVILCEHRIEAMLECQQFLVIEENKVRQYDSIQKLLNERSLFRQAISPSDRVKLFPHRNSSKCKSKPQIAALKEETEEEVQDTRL
Text: The YFP halide influx assay measured the functionality of the cystic fibrosis Transmembrane Conductance regulator (CFTR) channels. The assay was used to evaluate the capacity of compounds to increase the channel opening of existing mutant CFTR channels in the membrane. It makes use of the observation that the yellow fluorescent protein (YFP) variant YFP H148Q, I152L, F47L has its fluorescence substantially quenched by halide ions like Cl^− and I^− (Galietta, L. J. V., Haggie, P. M., Verkman, A. S., 2001. Green fluorescent protein-based halide indicators with improved chloride and iodide affinities. FEBS Lett. 499, 220-224. doi:10.1016/S0014-5793(01)02561-3).
For this purpose, HEK293-cells were seeded in 96 well plates. During seeding, the cells were reverse-transfected with plasmid vectors that direct the expression of the CFTR G551D mutant and of the YFP reporter. Cells were incubated at 37° C., 5% CO2 for 24 hours so as to allow for sufficient expression of the CFTR protein.
as §1, with “I^−-induced” for “I-induced”, “recorded” for “recorded on an”, “I^−” for “iodide”, “7 seconds.” for “2 minutes on an FDSS/μCell (Hamamatsu).”, “7” for “36”

Row | % Activation (CFTR ΔF508 mutant) | EC50 (CFTR ΔF508 mutant) | % Activation (CFTR G551D mutant) | EC50 (CFTR G551D mutant) | SMILES
1 | 91.8% | 140 nM | 49.3% | 1390 nM | CN(C)C(=O)C1CN(C(=O)c2ncc(S(=O)(=O)c3ccc(OC(F)(F)F)cc3)cc2N)C1 [Compound 62, 1-[(3-amino-5-{[4-(trifluoromethoxy)phenyl]sulfonyl}pyridin-2-yl)carbonyl]-N,N-dimethylazetidine-3-carboxamide]
2 | 107.0% | 1.3 nM | 72.5% | 160 nM | Nc1cc(S(=O)(=O)c2ccc(C(F)(F)F)cc2)cnc1C(=O)NC[C@H](O)C(F)(F)F [Compound 64, 3-amino-N-[(2S)-3,3,3-trifluoro-2-hydroxypropyl]-5-{[4-(trifluoromethyl)phenyl]sulfonyl}pyridine-2-carboxamide]
3 | 119.0% | 41.4 nM | 67.8% | 1160 nM | Nc1cc(S(=O)(=O)c2ccc(OC(F)(F)F)cc2)cnc1C(=O)N1CCC1 [Compound 65, (3-amino-5-{[4-(trifluoromethoxy)phenyl]sulfonyl}pyridin-2-yl)(azetidin-1-yl)methanone]
4 | 106.0% | 12.5 nM | 60.8% | 1550 nM | Nc1cc(S(=O)(=O)c2ccc(OC(F)(F)F)cc2)cnc1C(=O)N1CC(CO)C1 [Compound 66, (3-amino-5-{[4-(trifluoromethoxy)phenyl]sulfonyl}pyridin-2-yl)[3-(hydroxymethyl)azetidin-1-yl]methanone]
5 | 110.0% | 25.8 nM | 73.6% | 1590 nM | Nc1cc(S(=O)(=O)c2ccc(OC(F)(F)F)cc2)cnc1C(=O)N1CC(F)C1 [Compound 67, (3-amino-5-{[4-(trifluoromethoxy)phenyl]sulfonyl}pyridin-2-yl)(3-fluoroazetidin-1-yl)methanone]
6 | 92.0% | 130 nM | 54.0% | 1820 nM | Nc1cc(S(=O)(=O)c2ccc(OC(F)(F)F)cc2)cnc1C(=O)N1CC2(COC2)C1 [Compound 68, (3-amino-5-{[4-(trifluoromethoxy)phenyl]sulfonyl}pyridin-2-yl)(2-oxa-6-azaspiro[3.3]hept-6-yl)methanone]
7 | 102.0% | 5.7 nM | 85.0% | 1080 nM | COC[C@H](O)CNC(=O)c1ncc(S(=O)(=O)c2ccc(OC(F)(F)F)cc2)cc1N [Compound 69, 3-amino-N-[(2R)-2-hydroxy-3-methoxypropyl]-5-{[4-(trifluoromethoxy)phenyl]sulfonyl}pyridine-2-carboxamide]
8 | 89.3% | 21.8 nM | 44.2% | > 3330 nM | Nc1cc(S(=O)(=O)c2ccc(F)cc2)cnc1C(=O)NCCC(O)C(F)(F)F (stereo not shown) [Compound 72, 3-amino-5-[(4-fluorophenyl)sulfonyl]-N-(4,4,4-trifluoro-3-hydroxybutyl)pyridine-2-carboxamide]
9 | 102.0% | 81.4 nM | 61.0% | > 3330 nM | Nc1cc(S(=O)(=O)c2ccc(OC(F)(F)F)cc2)cnc1C(=O)NCC(O)C1CCOC1 (stereo not shown) [Compound 73, 3-amino-N-[2-hydroxy-2-(tetrahydrofuran-3-yl)ethyl]-5-{[4-(trifluoromethoxy)phenyl]sulfonyl}pyridine-2-carboxamide]
10 | 112.0% | 4.3 nM | 54.3% | > 3330 nM | Nc1cc(S(=O)(=O)c2ccccc2OC(F)(F)F)cnc1C(=O)N1CC(O)C1 [Compound 76, (3-amino-5-{[2-(trifluoromethoxy)phenyl]sulfonyl}pyridin-2-yl)(3-hydroxyazetidin-1-yl)methanone]
11 | 98.8% | 15.3 nM | 41.0% | > 3330 nM | Nc1cc(S(=O)(=O)c2ccc(OC(F)(F)F)cc2F)cnc1C(=O)N1CC(O)C1 [Compound 77, (3-amino-5-{[2-fluoro-4-(trifluoromethoxy)phenyl]sulfonyl}pyridin-2-yl) (3-hydroxyazetidin-1-yl)methanone]
12 | 101.0% | 10.5 nM | 64.4% | 1940 nM | Nc1cc(S(=O)(=O)N2CCC(F)(F)CC2)cnc1C(=O)NCC(O)C(F)(F)F (stereo not shown) [Compound 84, 3-amino-5-[(4,4-difluoropiperidin-1-yl)sulfonyl]-N-(3,3,3-trifluoro-2-hydroxypropyl)pyridine-2-carboxamide]
13 | 102.0% | 11.9 nM | 67.5% | 997 nM | CC(C)CC(O)CNC(=O)c1ncc(S(=O)(=O)c2ccc(OC(F)(F)F)cc2)cc1N (stereo not shown) [Compound 87, 3-amino-N-(2-hydroxy-4-methylpentyl)-5-{[4-(trifluoromethoxy)phenyl]sulfonyl}pyridine-2-carboxamide]
14 | 96.0% | 12.4 nM | 82.0% | 762 nM | CCOCC(O)CNC(=O)c1ncc(S(=O)(=O)c2ccc(OC(F)(F)F)cc2)cc1N (stereo not shown) [Compound 88, 3-amino-N-(3-ethoxy-2-hydroxypropyl)-5-{[4-(trifluoromethoxy)phenyl]sulfonyl}pyridine-2-carboxamide]
15 | 99.6% | 6.9 nM | 53.6% | > 3330 nM | CC1(O)CN(C(=O)c2ncc(S(=O)(=O)c3ccc(OC(F)(F)F)cc3)cc2N)C1 [Compound 89, (3-amino-5-{[4-(trifluoromethoxy)phenyl]sulfonyl}pyridin-2-yl)(3-hydroxy-3-methylazetidin-1-yl)methanone]
16 | 101.0% | 4 nM | 86.8% | 216 nM | CC(C)OCC(O)CNC(=O)c1ncc(S(=O)(=O)c2ccc(OC(F)(F)F)cc2)cc1N (stereo not shown) [Compound 90, 3-amino-N-[2-hydroxy-3-(propan-2-yloxy)propyl]-5-{[4-(trifluoromethoxy)phenyl]sulfonyl}pyridine-2-carboxamide]
17 | 102.0% | 22.2 nM | 43.4% | 1140 nM | CN(C1CC1)S(=O)(=O)c1cnc(C(=O)NCC(O)C(F)(F)F)c(N)c1 (stereo not shown) [Compound 94, 3-amino-5-[cyclopropyl(methyl)sulfamoyl]-N-(3,3,3-trifluoro-2-hydroxypropyl)pyridine-2-carboxamide]
18 | 92.9% | 102 nM | 23.8% | > 10000 nM | Nc1cc(S(=O)(=O)N2CC(F)(F)C2)cnc1C(=O)NCC(O)C(F)(F)F (stereo not shown) [Compound 97, 3-amino-5-[(3,3-difluoroazetidin-1-yl)sulfonyl]-N-(3,3,3-trifluoro-2-hydroxypropyl)pyridine-2-carboxamide]
19 | 95.6% | 7.4 nM | 60.2% | 685 nM | C[C@H](O)CNC(=O)c1ncc(S(=O)(=O)c2ccc(C(F)(F)F)cc2F)cc1N [Compound 98, 3-amino-5-{[2-fluoro-4-(trifluoromethyl)phenyl]sulfonyl}-N-[(2S)-2-hydroxypropyl]pyridine-2-carboxamide]
